Consider 8 cell lines from the supplement of paper PMC10307832.

What all share (test): relative viability (nuclei count vs DMSO), 5 days (fraction); higher = more cells survive
Compound in assay [1]: COC1=CC=C(C=C1)CN2C=CC3=C2C=C(C=C3)C(=O)NO + N=C(N)NC(=N)NCCc1ccccc1 [Phenformin] (partner 250 µM)
The method in brief:
(§1)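 Lung cancer cell lines in 1536-well plates were dosed by pin tool the day after seeding, either with one drug alone or with a fixed anchor-drug dose plus five library-drug doses (not always all listed) in √10 steps. After 5 days, cells were fixed and their nuclei stained in one step (final 0.05% Triton X-100, 1% formaldehyde, 1 ug/ml Hoechst), then counted on 4× images. Relative viability is the nuclei count in treated wells divided by that in vehicle wells. Values are medians of duplicate plates.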

Compound in the assay “Veliparib + Trametinib”: C[C@]1(c2nc3c(C(N)=O)cccc3[nH]2)CCCN1 [Veliparib] + CC(=O)Nc1cccc(-n2c(=O)n(C3CC3)c(=O)c3c(Nc4ccc(I)cc4F)n(C)c(=O)c(C)c32)c1 [Trametinib] (partner 0.02 µM)
In outline: as §1

Compound in the assay “Veliparib + Pictilisib”: C[C@]1(c2nc3c(C(N)=O)cccc3[nH]2)CCCN1 [Veliparib] + CS(=O)(=O)N1CCN(Cc2cc3nc(-c4cccc5[nH]ncc45)nc(N4CCOCC4)c3s2)CC1 [Pictilisib] (partner 1 µM)
The method in brief:
as §1

Compound in the assay “Veliparib + Vorinostat”: C[C@]1(c2nc3c(C(N)=O)cccc3[nH]2)CCCN1 [Veliparib] + O=C(CCCCCCC(=O)Nc1ccccc1)NO [Vorinostat] (partner 1 µM)
In outline: as §1

In the case of NCI-H3122, the relative viability in assay [1] (first compound 0.253 µM) worked out at 0.324; in assay [1] (first compound 0.8 µM), 0.393; in assay [1] (first compound 2.53 µM) it was 0.382; in assay [1] (first compound 8 µM) it was 0.337; with Veliparib + Trametinib (first compound 0.02 µM) it was 0.181; with Veliparib + Trametinib (first compound 0.06325 µM), 0.186. The relative viability came out at 0.214 in the assay with Veliparib + Trametinib (first compound 0.2 µM); 0.208 with Veliparib + Trametinib (first compound 0.6325 µM); 0.233 with Veliparib + Trametinib (first compound 2 µM); 0.576 in the assay with Veliparib + Pictilisib (first compound 0.02 µM); 0.599 with Veliparib + Pictilisib (first compound 0.06325 µM); 0.673 with Veliparib + Pictilisib (first compound 0.2 µM). The relative viability worked out at 0.552 with Veliparib + Pictilisib (first compound 0.6325 µM); 0.611 with Veliparib + Pictilisib (first compound 2 µM); 0.906 in the assay with Veliparib + Vorinostat (first compound 0.02 µM); 1.05 with Veliparib + Vorinostat (first compound 0.06325 µM); 0.972 in the assay with Veliparib + Vorinostat (first compound 0.2 µM); 0.929 with Veliparib + Vorinostat (first compound 0.6325 µM). The relative viability in the assay with Veliparib + Vorinostat (first compound 2 µM) was 1.07.
Take PC-3 [JPC-3]: the relative viability in assay [1] (first compound 0.08 µM) came to 0.5; in assay [1] (first compound 0.253 µM), 0.464; in assay [1] (first compound 0.8 µM) it was 0.475; in assay [1] (first compound 2.53 µM), 0.495; in assay [1] (first compound 8 µM) it was 0.497; with Veliparib + Trametinib (first compound 0.02 µM), 0.596. Moreover, the relative viability in the assay with Veliparib + Trametinib (first compound 0.2 µM) worked out at 0.749; in the assay with Veliparib + Trametinib (first compound 0.6325 µM) it was 0.685; with Veliparib + Trametinib (first compound 2 µM) it was 0.682; with Veliparib + Pictilisib (first compound 0.02 µM) it was 0.774; with Veliparib + Pictilisib (first compound 0.06325 µM) it was 0.689; with Veliparib + Pictilisib (first compound 0.2 µM) it was 0.774. Further, the relative viability in the assay with Veliparib + Pictilisib (first compound 0.6325 µM) stood at 0.69; with Veliparib + Pictilisib (first compound 2 µM) it was 0.758; with Veliparib + Vorinostat (first compound 0.02 µM), 0.68; in the assay with Veliparib + Vorinostat (first compound 0.2 µM), 1.02; with Veliparib + Vorinostat (first compound 0.6325 µM), 1.03; in the assay with Veliparib + Vorinostat (first compound 2 µM), 0.922.
In the case of PC-14, the relative viability came out at 0.348 in assay [1] (first compound 0.253 µM); 0.667 in assay [1] (first compound 0.8 µM); 0.639 in assay [1] (first compound 2.53 µM); 0.488 in assay [1] (first compound 8 µM); 0.664 with Veliparib + Trametinib (first compound 0.06325 µM); 0.699 with Veliparib + Trametinib (first compound 0.2 µM). In addition, the relative viability in the assay with Veliparib + Trametinib (first compound 0.6325 µM) is 0.686; with Veliparib + Trametinib (first compound 2 µM), 0.834; in the assay with Veliparib + Pictilisib (first compound 0.02 µM), 0.624; with Veliparib + Pictilisib (first compound 0.06325 µM), 0.513; with Veliparib + Pictilisib (first compound 0.2 µM), 0.616; in the assay with Veliparib + Pictilisib (first compound 0.6325 µM) it was 0.673. Further, the relative viability in the assay with Veliparib + Pictilisib (first compound 2 µM) was determined as 0.662; with Veliparib + Vorinostat (first compound 0.06325 µM), 0.622; in the assay with Veliparib + Vorinostat (first compound 0.2 µM) it was 0.701; with Veliparib + Vorinostat (first compound 0.6325 µM), 0.639; in the assay with Veliparib + Vorinostat (first compound 2 µM), 0.64.
For the cell line RERF-LC-KJ, the relative viability is 0.362 in assay [1] (first compound 0.08 µM); 0.412 in assay [1] (first compound 0.253 µM); 0.484 in assay [1] (first compound 0.8 µM); 0.408 in assay [1] (first compound 2.53 µM); 0.347 in assay [1] (first compound 8 µM); 0.938 with Veliparib + Trametinib (first compound 0.02 µM). The relative viability with Veliparib + Trametinib (first compound 0.06325 µM) was found to be 0.822; with Veliparib + Trametinib (first compound 0.2 µM), 0.899; with Veliparib + Trametinib (first compound 0.6325 µM), 0.845; with Veliparib + Trametinib (first compound 2 µM) it was 0.858; with Veliparib + Pictilisib (first compound 0.02 µM) it was 0.59; with Veliparib + Pictilisib (first compound 0.06325 µM), 0.529. The relative viability was found to be 0.592 in the assay with Veliparib + Pictilisib (first compound 0.2 µM); 0.563 with Veliparib + Pictilisib (first compound 0.6325 µM); 0.454 in the assay with Veliparib + Pictilisib (first compound 2 µM); 0.51 with Veliparib + Vorinostat (first compound 0.02 µM); 0.61 with Veliparib + Vorinostat (first compound 0.06325 µM); 0.679 with Veliparib + Vorinostat (first compound 0.2 µM). Moreover, the relative viability with Veliparib + Vorinostat (first compound 0.6325 µM) was 0.665; in the assay with Veliparib + Vorinostat (first compound 2 µM), 0.64.
As to SK-LU-1, the relative viability came out at 0.551 in assay [1] (first compound 0.08 µM); 0.566 in assay [1] (first compound 0.253 µM); 0.596 in assay [1] (first compound 0.8 µM); 0.604 in assay [1] (first compound 2.53 µM); 0.469 in assay [1] (first compound 8 µM); 0.561 with Veliparib + Trametinib (first compound 0.02 µM). For the same cell line, the relative viability in the assay with Veliparib + Trametinib (first compound 0.06325 µM) was determined as 0.519; with Veliparib + Trametinib (first compound 0.2 µM), 0.607; with Veliparib + Trametinib (first compound 0.6325 µM) it was 0.524; with Veliparib + Trametinib (first compound 2 µM), 0.415; in the assay with Veliparib + Pictilisib (first compound 0.02 µM), 0.624; with Veliparib + Pictilisib (first compound 0.06325 µM), 0.573. For the same cell line, the relative viability with Veliparib + Pictilisib (first compound 0.2 µM) turned out to be 0.483; with Veliparib + Pictilisib (first compound 0.6325 µM) it was 0.585; with Veliparib + Pictilisib (first compound 2 µM), 0.536; in the assay with Veliparib + Vorinostat (first compound 0.02 µM) it was 0.946; with Veliparib + Vorinostat (first compound 0.06325 µM), 0.837; with Veliparib + Vorinostat (first compound 0.2 µM), 0.906. Moreover, the relative viability in the assay with Veliparib + Vorinostat (first compound 0.6325 µM) was 0.722; with Veliparib + Vorinostat (first compound 2 µM), 0.754.
For the cell line SK-MES-1, the relative viability came out at 0.661 in assay [1] (first compound 0.08 µM); 0.651 in assay [1] (first compound 0.253 µM); 0.632 in assay [1] (first compound 0.8 µM); 0.686 in assay [1] (first compound 2.53 µM); 0.644 in assay [1] (first compound 8 µM); 0.531 with Veliparib + Trametinib (first compound 0.02 µM). In addition, the relative viability with Veliparib + Trametinib (first compound 0.06325 µM) was determined as 0.54; with Veliparib + Trametinib (first compound 0.2 µM), 0.525; with Veliparib + Trametinib (first compound 0.6325 µM), 0.53; with Veliparib + Trametinib (first compound 2 µM), 0.627; in the assay with Veliparib + Pictilisib (first compound 0.02 µM), 0.373; with Veliparib + Pictilisib (first compound 0.06325 µM), 0.295. Besides, the relative viability came out at 0.402 with Veliparib + Pictilisib (first compound 0.2 µM); 0.336 with Veliparib + Pictilisib (first compound 0.6325 µM); 0.347 with Veliparib + Pictilisib (first compound 2 µM); 1.19 in the assay with Veliparib + Vorinostat (first compound 0.02 µM); 1.08 with Veliparib + Vorinostat (first compound 0.06325 µM); 1.09 with Veliparib + Vorinostat (first compound 0.2 µM). Besides, the relative viability is 1.04 with Veliparib + Vorinostat (first compound 0.6325 µM) and 1.07 in the assay with Veliparib + Vorinostat (first compound 2 µM).
Take SW 1573: the relative viability in assay [1] (first compound 0.253 µM) was 0.368; in assay [1] (first compound 0.8 µM), 0.426; in assay [1] (first compound 2.53 µM) it was 0.379; in assay [1] (first compound 8 µM), 0.331; with Veliparib + Trametinib (first compound 0.06325 µM), 0.474; with Veliparib + Trametinib (first compound 0.2 µM), 0.52. Further, the relative viability in the assay with Veliparib + Trametinib (first compound 0.6325 µM) was determined as 0.513; with Veliparib + Trametinib (first compound 2 µM), 0.548; in the assay with Veliparib + Pictilisib (first compound 0.02 µM), 0.459; in the assay with Veliparib + Pictilisib (first compound 0.06325 µM), 0.587; in the assay with Veliparib + Pictilisib (first compound 0.2 µM), 0.476; with Veliparib + Pictilisib (first compound 0.6325 µM), 0.497. The relative viability with Veliparib + Pictilisib (first compound 2 µM) worked out at 0.418; in the assay with Veliparib + Vorinostat (first compound 0.06325 µM) it was 0.596; with Veliparib + Vorinostat (first compound 0.2 µM), 0.67; with Veliparib + Vorinostat (first compound 0.6325 µM), 0.495; with Veliparib + Vorinostat (first compound 2 µM), 0.869.
In the case of UMC-11, the relative viability came out at 0.356 in assay [1] (first compound 0.253 µM); 0.331 in assay [1] (first compound 0.8 µM); 0.286 in assay [1] (first compound 2.53 µM); 0.309 in assay [1] (first compound 8 µM); 0.7 with Veliparib + Trametinib (first compound 0.02 µM); 0.759 with Veliparib + Trametinib (first compound 0.06325 µM). Further, the relative viability in the assay with Veliparib + Trametinib (first compound 0.2 µM) was 0.707; with Veliparib + Trametinib (first compound 0.6325 µM) it was 0.682; in the assay with Veliparib + Trametinib (first compound 2 µM), 0.635; with Veliparib + Pictilisib (first compound 0.02 µM), 0.779; with Veliparib + Pictilisib (first compound 0.06325 µM), 0.891; with Veliparib + Pictilisib (first compound 0.2 µM), 0.817. In addition, the relative viability with Veliparib + Pictilisib (first compound 0.6325 µM) is 0.876; with Veliparib + Pictilisib (first compound 2 µM), 0.883; in the assay with Veliparib + Vorinostat (first compound 0.02 µM), 0.432; with Veliparib + Vorinostat (first compound 0.06325 µM), 0.354; with Veliparib + Vorinostat (first compound 0.2 µM) it was 0.365; with Veliparib + Vorinostat (first compound 0.6325 µM) it was 0.381. Moreover, the relative viability with Veliparib + Vorinostat (first compound 2 µM) turned out to be 0.394.
